# From publication PMC6271218, “Pharmacokinetics, Tissue Distribution and Excretion of Verticinone from F. hupehensis in Rats” (Molecules, 2014)
# Where two headings read alike, the source gives them in different places.
# What was measured:
# [1] = Single-dose plasma pharmacokinetics after i.g. administration; format: in vivo, SD rats; conditions: for bioavailability / AUC(0-inf) / AUC(0-t) / Tmax / MRT last / Vd/F / half-life / Cmax: SD, rat, plasma; for bioavailability: oral, i.g. vs i.v., read-out: absolute (oral) bioavailability; for AUC(0-inf) / AUC(0-t) / Tmax / MRT last / Vd/F / half-life / Cmax: po; for MRT last: read-out: MRT0–t; for Vd/F: read-out: Vz/F; for half-life: read-out: t1/2z (converted); for Cmax: n = 5; for relationship between dosages and AUC0–t in plasma: oral 1, 2 and 4 mg/kg
# Description: Pharmacokinetic studies of verticinone after intravenous (i.v.) and intragastrical (i.g.) administration to rats were designed to determine pharmacokinetic parameters and absolute bioavailability. For i.g administration, verticinone was suspended in 0.5% carboxymethyl cellulose sodium (CMC-Na) to final concentrations of 0.2, 0.4 and 0.8 mg/mL. Verticinone was dissolved in 20% ethanol/80% water to final concentration of 0.08 mg/mL for i.v. administration. For the i.v. group, five male and five female rats received a single dose of 0.4 mg/kg. Blood samples (0.25 mL) were obtained at 0, 4, 15, 30, 45, 60, 120, 240, 360, 480, 600 and 720 min after injection. For the single- i.g. group, fifteen male and fifteen female rats were divided into three groups, and each group received a single oral dose of 1, 2 and 4 mg/kg of verticinone, respectively. In addition, another five male and five female rats received multiple oral doses of 4 mg/kg/day, given as 2 mg/kg doses twice a day (one dose in the morning and the second dose 12 h later) for 7 days, then a single oral dose of 2 mg/kg on the eighth day. Blood samples (0.25 mL) were obtained at 0, 5, 15, 30, 45, 60, 90, 120, 240, 360, 480 and 720 min for male rats and at 0, 5, 10, 20, 30, 45, 60, 120, 240, 360, 480 and 720 min for female rats after oral administration (the eighth day for multiple-dose group). Blood samples were then centrifuged at 4000 rpm for 10 min, and the plasma was collected. All plasma samples were frozen and stored at −20 °C until analysis. Verticinone was isolated from plasma by liquid-liquid extraction according to our previously reported procedure.
# The quantification of verticinone was performed by a LC-MS method based on the previously reported method with slight modifications. The liquid chromatography system consisted of a model 2010 chromatograph (Shimadzu, Kyoto, Japan) equipped with a Shim-Pack VP-ODS C18 column (150 mm × 2.0 mm, 5 μm). A Shimadzu 2010 mass spectrometer (Q-array-Octapole-Quadrupole mass analyzer) equipped with an electrospray ionization interface was used for MS detection. The mobile phase consisted of (A) distilled water and (B) methanol, and the flow rate was 0.2 mL/min. Chromatography separation was achieved using a gradient elution program, as follows: 0.03→6.0 min, B% 15→85; 6.0→7.0 min, B% 85→85; 7.0→8.0 min, B% 85→15; 8.0–12.0 min, B% 15→15. The column and autosampler tray temperature were kept constant at 35 °C and 20 °C, respectively. For the determination of verticinone, the positive mode was selected, along with the conditions as follows.
# CDL voltage […], probe voltage 4.5 kV, CDL temperature 250 °C, block temperature 200 °C, gas flow 1.5 L/min. Hupehenine was used as the internal standard (IS). Both verticinone and IS were detected using selected ion monitoring (SIM) at m/z 430.25 for verticinone and m/z 416.30 for hupehenine (IS), with a dwell time of 200 ms. Blank plasma, tissue homogenate, urine, feces homogenate and bile were used to prepare the corresponding calibration curves to avoid different matrix effects.
# The pharmacokinetic parameters were calculated by the DAS 2.0 software (Chinese Pharmacological Association, Beijing, China) using a standard non-compartmental method. The Cmax and Tmax were determined from the observed data. The elimination rate constant (ke) was calculated by log-linear regression of verticinone concentrations during the terminal elimination phase and the half-life (t1/2) was calculated as 0.693/ke. The AUC0–t was calculated by the linear trapezoidal method. The AUC0–∞ was calculated as the sum of AUC0–t and the extrapolated part determined by Clast/ke. The total clearance (CL) was calculated as dose/AUC0–∞. The absolute bioavailability (F) was calculated by the following equation: F = [(AUCi.g./AUCi.v.) × (Dosei.v./Dosei.g.)] × 100%. The results were expressed as mean ± SD. Statistical analyses were performed using an unpaired Student’s t-test.
# [2] = Plasma protein binding in vitro by ultrafiltration, human plasma; format: in vitro ADME, humans
# Description: The ability of verticinone to bind to plasma protein was determined by the ultrafiltration method. A Centrifree Micropartition device (Millipore, Beverly, MA, USA) was used to separate unbound and bound verticinone. Verticinone of different concentrations were added into blank rat and human plasma to give final concentrations at 5, 30 and 100 ng/mL. The spiked plasma was incubated for 30 min at 37 °C and an aliquot (100 μL) was analyzed by previously described methods to determine the total concentration of verticinone. The ultrafiltrate was obtained by centrifuging at 14,000 rpm for 10 min. The concentration of unbound verticinone in filtrate was similarly determined by the previously described methods. The percentage of free fraction (p) of verticinone was calculated as follow: p = (concentration of verticinone in ultrafiltrate/concentration of verticinone in original spiked plasma sample) × 100%.
# [3] = parameters: method as in PMID 19417735; conditions: mice; cited from earlier work
# [4] = Metabolic rate in rat liver microsomes; format: in vitro ADME
# [5] = i.g. 1 mg/kg single dose, female rats
# [6] = i.g. 1 mg/kg single dose, male rats
# [7] = i.g. 2 mg/kg single dose, female rats
# [8] = i.g. 2 mg/kg single dose, male rats
# [9] = i.g. 4 mg/kg single dose, female rats
# [10] = i.g. 4 mg/kg single dose, male rats
smiles,measurement,setting,value
"C[C@H]1CC[C@@H]2N(C1)C[C@H]1[C@@H]3C[C@H]4[C@@H](CC(=O)[C@H]5C[C@@H](O)CC[C@@]54C)[C@@H]3CC[C@@H]1[C@]2(C)O [verticinone, Verticinone]",bioavailability,[1]; female rats,2.74%
same,bioavailability,[1]; male rats,45.8%
same,AUC(0-inf),[1]; [5],15.3 ± 3.06 ng·h/mL
same,AUC(0-t),[1]; [5],14.5 ± 3.27 ng·h/mL
same,Tmax,[1]; [5],0.67 ± 0.31 h
same,MRT last,[1]; [5],3.59 ± 0.18 h
same,Vd/F,[1]; [5],280 ± 160 L/kg
same,half-life,[1]; [5],2.86 ± 1.29 h
same,AUC(0-inf),[1]; [6],167 ± 52.5 ng·h/mL
same,AUC(0-t),[1]; [6],159 ± 50.1 ng·h/mL
same,Tmax,[1]; [6],0.7 ± 0.11 h
same,MRT last,[1]; [6],3.21 ± 0.34 h
same,Vd/F,[1]; [6],25.5 ± 9.07 L/kg
same,half-life,[1]; [6],2.78 ± 0.85 h
same,AUC(0-inf),[1]; [7],18.8 ± 5.01 ng·h/mL
same,AUC(0-t),[1]; [7],17.3 ± 5.4 ng·h/mL
same,Tmax,[1]; [7],0.4 ± 0.36 h
same,MRT last,[1]; [7],3.42 ± 1.22 h
same,Vd/F,[1]; [7],649 ± 419 L/kg
same,half-life,[1]; [7],4.05 ± 2.48 h
same,AUC(0-inf),[1]; [8],475 ± 119 ng·h/mL
same,AUC(0-t),[1]; [8],446 ± 111 ng·h/mL
same,Tmax,[1]; [8],1.45 ± 1.42 h
same,MRT last,[1]; [8],3.62 ± 0.37 h
same,Vd/F,[1]; [8],19.4 ± 6.7 L/kg
same,half-life,[1]; [8],3.05 ± 0.78 h
same,AUC(0-inf),[1]; [9],27.1 ± 5.78 ng·h/mL
same,AUC(0-t),[1]; [9],26.6 ± 5.84 ng·h/mL
same,Tmax,[1]; [9],0.4 ± 0.35 h
same,MRT last,[1]; [9],2.04 ± 0.21 h
same,Vd/F,[1]; [9],387 ± 74.2 L/kg
same,half-life,[1]; [9],1.84 ± 0.58 h
same,AUC(0-inf),[1]; [10],769 ± 257 ng·h/mL
same,AUC(0-t),[1]; [10],737 ± 236 ng·h/mL
same,Tmax,[1]; [10],0.7 ± 0.11 h
same,MRT last,[1]; [10],3.19 ± 0.48 h
same,Vd/F,[1]; [10],18.6 ± 9.14 L/kg
same,half-life,[1]; [10],2.33 ± 0.86 h
same,Cmax,[1]; [5],3.67 ± 1.13 ng/mL
same,Cmax,[1]; [6],38.9 ± 9.34 ng/mL
same,Cmax,[1]; [7],7.45 ± 7.1 ng/mL
same,Cmax,[1]; [8],94.8 ± 17.1 ng/mL
same,Cmax,[1]; [9],12.6 ± 5.14 ng/mL
same,Cmax,[1]; [10],176 ± 45.2 ng/mL
same,relationship between dosages and AUC0–t in plasma,[1]; female rats,nonlinear dependence
same,relationship between dosages and AUC0–t in plasma,[1]; male rats,linear dependence
same,"fraction unbound at 30 min, 5 ng/mL","[2]; human plasma, 5 ng/mL, ultrafiltration, n = 4, read-out: Protein binding rates (%) (converted)",0.074
same,"fraction unbound at 30 min, 30 ng/mL","[2]; human plasma, 30 ng/mL, ultrafiltration, n = 4, read-out: Protein binding rates (%) (converted)",0.105
same,"fraction unbound at 30 min, 100 ng/mL","[2]; human plasma, 100 ng/mL, ultrafiltration, n = 4, read-out: Protein binding rates (%) (converted)",0.054
same,fraction unbound at 30 min,"[2]; human, plasma, humans, concentration range 5~100 ng/mL",0.054 to 0.105
same,addictive effect,[3],no addictive effect
same,metabolic rate in rat liver microsomes,[4]; female rats,3.76 × 10^−3 nmol/min/mg protein
same,"metabolic rate in rat liver microsomes, females faster than males",[4]; females vs males,about 1.7 times
same,metabolic rate in rat liver microsomes,[4]; male rats,2.18 × 10^−3 nmol/min/mg protein
